# Results: ChEMBL document CHEMBL3885861, “Open TG-GATES”
# Organism: Rattus norvegicus
# Assay: Open TG-GATES - Regimen: Daily Repeat
# Format: toxicity, organism-based, Sprague-Dawley
# Set-up: regimen Daily Repeat, gender Male, age 6 weeks
# Settings: in vivo, po, 50 mg/kg, route gavage, dose level Middle; for APTT / Bas / Eos / Fbg / Hb / Ht / Lym / MCH / MCHC / MCV / Mono / Neu / PT / Plat / RBC / Ret / WBC: tissue Blood; for KIDNEY_L / KIDNEY_R / KIDNEY_TOTAL: tissue Kidney; for LIVER: tissue Liver; for A/G / ALP / ALT / AST / BUN / CRE / Ca / Cl / DBIL / GLC / IP / K / LDH / Na / PL / RALB / TBIL / TC / TG / TP / gamma-GTP: tissue Plasma
compound,measurement,setting,value
Nc1nc(N)c2nc(-c3ccccc3)c(N)nc2n1,TERMINAL_BW,"72 h, time 3 day",241.1 g
same,APTT,"72 h, time 3 day",15.9 s
same,Bas,"72 h, time 3 day",0%
same,Eos,"72 h, time 3 day",1%
same,Fbg,"72 h, time 3 day",334.2 mg/dL
same,Hb,"72 h, time 3 day",13.9 g/dL
same,Ht,"72 h, time 3 day",40.9%
same,Lym,"72 h, time 3 day",74.4%
same,MCH,"72 h, time 3 day",21.2 pg
same,MCHC,"72 h, time 3 day",34.2%
same,MCV,"72 h, time 3 day",62.1 fL
same,Mono,"72 h, time 3 day",2.8%
same,Neu,"72 h, time 3 day",21.4%
same,PT,"72 h, time 3 day",13.8 s
same,Plat,"72 h, time 3 day",119.3 x10_4/uL
same,RBC,"72 h, time 3 day",658 x10_4/ul
same,Ret,"72 h, time 3 day",5.6%
same,WBC,"72 h, time 3 day",93.5 x10_2/uL
same,KIDNEY_L,"72 h, time 3 day",1.1 g
same,KIDNEY_R,"72 h, time 3 day",1.1 g
same,KIDNEY_TOTAL,"72 h, time 3 day",2.2 g
same,LIVER,"72 h, time 3 day",11.5 g
same,A/G,"72 h, time 3 day",0.9
same,ALP,"72 h, time 3 day",1521.8 IU/L
same,ALT,"72 h, time 3 day",42.2 IU/L
same,AST,"72 h, time 3 day",65.2 IU/L
same,BUN,"72 h, time 3 day",15.2 mg/dL
same,CRE,"72 h, time 3 day",0.2 mg/dL
same,Ca,"72 h, time 3 day",10.9 mg/dL
same,Cl,"72 h, time 3 day",105.4 meq/L
same,DBIL,"72 h, time 3 day",0.008 mg/dL
same,GLC,"72 h, time 3 day",175 mg/dL
same,IP,"72 h, time 3 day",8.2 mg/dL
same,K,"72 h, time 3 day",3.9 meq/L
same,LDH,"72 h, time 3 day",56.2 IU/L
same,Na,"72 h, time 3 day",143.6 meq/L
same,PL,"72 h, time 3 day",166.2 mg/dL
same,RALB,"72 h, time 3 day",2.6 g/dL
same,TBIL,"72 h, time 3 day",0.04 mg/dL
same,TC,"72 h, time 3 day",85 mg/dL
same,TG,"72 h, time 3 day",126.2 mg/dL
same,TP,"72 h, time 3 day",5.5 g/dL
same,gamma-GTP,"72 h, time 3 day",1 IU/L
same,TERMINAL_BW,"[…], time 7 day",280.2 g
same,TERMINAL_BW,"[…], time 14 day",333.9 g
same,TERMINAL_BW,"[…], time 28 day",402.9 g
same,APTT,"[…], time 7 day",16.3 s
same,Bas,"[…], time 7 day",0%
same,Eos,"[…], time 7 day",1%
same,Fbg,"[…], time 7 day",335.4 mg/dL
same,Hb,"[…], time 7 day",13.8 g/dL
same,Ht,"[…], time 7 day",42.3%
same,Lym,"[…], time 7 day",77.8%
same,MCH,"[…], time 7 day",20.2 pg
same,MCHC,"[…], time 7 day",32.6%
same,MCV,"[…], time 7 day",62.1 fL
same,Mono,"[…], time 7 day",2%
same,Neu,"[…], time 7 day",18.6%
same,PT,"[…], time 7 day",13.9 s
same,Plat,"[…], time 7 day",134.1 x10_4/uL
same,RBC,"[…], time 7 day",680.6 x10_4/ul
same,Ret,"[…], time 7 day",5.3%
same,WBC,"[…], time 7 day",121.8 x10_2/uL
same,APTT,"[…], time 14 day",18.2 s
same,Bas,"[…], time 14 day",0.2%
same,Eos,"[…], time 14 day",1%
same,Fbg,"[…], time 14 day",312.2 mg/dL
same,Hb,"[…], time 14 day",14.5 g/dL
same,Ht,"[…], time 14 day",44.6%
same,Lym,"[…], time 14 day",80.6%
same,MCH,"[…], time 14 day",19.6 pg
same,MCHC,"[…], time 14 day",32.6%
same,MCV,"[…], time 14 day",59.9 fL
same,Mono,"[…], time 14 day",2.6%
same,Neu,"[…], time 14 day",15.4%
same,PT,"[…], time 14 day",12.9 s
same,Plat,"[…], time 14 day",127.2 x10_4/uL
same,RBC,"[…], time 14 day",744.2 x10_4/ul
same,Ret,"[…], time 14 day",4.2%
same,WBC,"[…], time 14 day",93 x10_2/uL
same,APTT,"[…], time 28 day",18.2 s
same,Bas,"[…], time 28 day",0.4%
same,Eos,"[…], time 28 day",1.4%
same,Fbg,"[…], time 28 day",283.2 mg/dL
same,Hb,"[…], time 28 day",15.4 g/dL
same,Ht,"[…], time 28 day",45.4%
same,Lym,"[…], time 28 day",80%
same,MCH,"[…], time 28 day",19.1 pg
same,MCHC,"[…], time 28 day",33.9%
same,MCV,"[…], time 28 day",56.2 fL
same,Mono,"[…], time 28 day",1.6%
same,Neu,"[…], time 28 day",16.2%
same,PT,"[…], time 28 day",13.5 s
same,Plat,"[…], time 28 day",105.5 x10_4/uL
same,RBC,"[…], time 28 day",807 x10_4/ul
same,Ret,"[…], time 28 day",2.4%
same,WBC,"[…], time 28 day",101.1 x10_2/uL
same,KIDNEY_L,"[…], time 7 day",1.2 g
same,KIDNEY_R,"[…], time 7 day",1.2 g
same,KIDNEY_TOTAL,"[…], time 7 day",2.4 g
same,KIDNEY_L,"[…], time 14 day",1.3 g
same,KIDNEY_R,"[…], time 14 day",1.3 g
same,KIDNEY_TOTAL,"[…], time 14 day",2.6 g
same,KIDNEY_L,"[…], time 28 day",1.4 g
same,KIDNEY_R,"[…], time 28 day",1.4 g
same,KIDNEY_TOTAL,"[…], time 28 day",2.8 g
same,LIVER,"[…], time 7 day",12.7 g
same,LIVER,"[…], time 14 day",14.7 g
same,LIVER,"[…], time 28 day",15.8 g
same,A/G,"[…], time 7 day",0.9
same,ALP,"[…], time 7 day",1449.6 IU/L
same,ALT,"[…], time 7 day",46.8 IU/L
same,AST,"[…], time 7 day",66.6 IU/L
same,BUN,"[…], time 7 day",17.6 mg/dL
same,CRE,"[…], time 7 day",0.2 mg/dL
same,Ca,"[…], time 7 day",11 mg/dL
same,Cl,"[…], time 7 day",106 meq/L
same,DBIL,"[…], time 7 day",0.012 mg/dL
same,GLC,"[…], time 7 day",179 mg/dL
same,IP,"[…], time 7 day",7.7 mg/dL
same,K,"[…], time 7 day",4.3 meq/L
same,LDH,"[…], time 7 day",60 IU/L
same,Na,"[…], time 7 day",142.4 meq/L
same,PL,"[…], time 7 day",154.6 mg/dL
same,RALB,"[…], time 7 day",2.6 g/dL
same,TBIL,"[…], time 7 day",0.07 mg/dL
same,TC,"[…], time 7 day",77.2 mg/dL
same,TG,"[…], time 7 day",128.2 mg/dL
same,TP,"[…], time 7 day",5.5 g/dL
same,gamma-GTP,"[…], time 7 day",1.2 IU/L
same,A/G,"[…], time 14 day",0.9
same,ALP,"[…], time 14 day",1311.6 IU/L
same,ALT,"[…], time 14 day",43.2 IU/L
same,AST,"[…], time 14 day",64.2 IU/L
same,BUN,"[…], time 14 day",18 mg/dL
same,CRE,"[…], time 14 day",0.2 mg/dL
same,Ca,"[…], time 14 day",10.6 mg/dL
same,Cl,"[…], time 14 day",104.8 meq/L
same,DBIL,"[…], time 14 day",0.014 mg/dL
same,GLC,"[…], time 14 day",191.8 mg/dL
same,IP,"[…], time 14 day",8.1 mg/dL
same,K,"[…], time 14 day",3.7 meq/L
same,LDH,"[…], time 14 day",69.6 IU/L
same,Na,"[…], time 14 day",144.4 meq/L
same,PL,"[…], time 14 day",149.2 mg/dL
same,RALB,"[…], time 14 day",2.7 g/dL
same,TBIL,"[…], time 14 day",0.07 mg/dL
same,TC,"[…], time 14 day",70.2 mg/dL
same,TG,"[…], time 14 day",137 mg/dL
same,TP,"[…], time 14 day",5.9 g/dL
same,gamma-GTP,"[…], time 14 day",1 IU/L
same,A/G,"[…], time 28 day",0.8
same,ALP,"[…], time 28 day",1251 IU/L
same,ALT,"[…], time 28 day",39.2 IU/L
same,AST,"[…], time 28 day",62.4 IU/L
same,BUN,"[…], time 28 day",17.6 mg/dL
same,CRE,"[…], time 28 day",0.2 mg/dL
same,Ca,"[…], time 28 day",10.7 mg/dL
same,Cl,"[…], time 28 day",104.2 meq/L
same,DBIL,"[…], time 28 day",0.014 mg/dL
same,GLC,"[…], time 28 day",188.2 mg/dL
same,IP,"[…], time 28 day",6.7 mg/dL
same,K,"[…], time 28 day",3.8 meq/L
same,LDH,"[…], time 28 day",52.6 IU/L
same,Na,"[…], time 28 day",143.6 meq/L
same,PL,"[…], time 28 day",139.2 mg/dL
same,RALB,"[…], time 28 day",2.7 g/dL
same,TBIL,"[…], time 28 day",0.06 mg/dL
same,TC,"[…], time 28 day",64.6 mg/dL
same,TG,"[…], time 28 day",154 mg/dL
same,TP,"[…], time 28 day",6.1 g/dL
same,gamma-GTP,"[…], time 28 day",1 IU/L
